In series [1] the test system is S. aureus ATCC 33592 (MRSA SCCmec type III). As to the kind of experiment: MIC, broth dilution. It counts as cell-based, Staphylococcus aureus. Conditions: Table 5; STIP3 variants, highest concentration 100 μg/mL. The procedure, abridged:
(§1)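 MIC defined as the lowest peptide level giving no growth after overnight standing incubation at 37° C. Bacteria at OD 6×10^−4 in cation-adjusted MH broth met 2-fold serial peptide dilutions; peptide purity 95%.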
In general terms: Broth dilution looks for growth in wells or tubes with falling amounts of substance.

In series [2] the test system is S. aureus ATCC 29213. As to the kind of experiment: MIC, broth dilution. It counts as cell-based, Staphylococcus aureus. The procedure, abridged: as §1
Series [3] in a line: Circular dichroism spectroscopy. It is filed as physicochemical. Conditions: CD, 50% (v/v) TFE. An excerpt: The δ-toxins and the PSMs are characterized as α-helical peptides that form amyloid fibers^48. Although the propensity of individual peptides to form amyloids is correlated to their cytotoxicity^49, the amyloid form is not directly implicated in cell membrane disruption^50. […] CD spectroscopy was used to investigate the secondary structure of a subset of peptides within the collection (FIG. 4A, Table 5). The STIP variants adopted α-helical forms in 50% (v/v) trifluoroethanol (TFE), though unlike the full-length S. auricularis δ-toxin, they were unstructured in water. […] Specifically, peptides characterized by the greatest and least α-helical content in TFE had MICs above the highest tested threshold.
Circular dichroism spectroscopy. Peptides were dissolved in water at concentrations between 0.3 and 0.5 mg/mL. CD spectra were recorded on an Applied Photophysics Chirascan Plus CD spectrophotometer at room temperature in a 0.1 cm path-length quartz cuvette. Spectra were recorded from 180 to 260 nm.
(Circular dichroism is the unequal absorption of left and right circularly polarised light.)

The test system of series [4] is S. aureus / MRSA (ATCC MP-2 panel). It is filed as cell-based, Staphylococcus aureus. Here is the method:
In order to begin to characterize STIP3-1 and potential sites amenable to modification, an alanine scanning experiment was performed. A total of 16 peptides with single alanine substitutions were assessed to inform on the importance of individual residues to antimicrobial activity. […] Next a series of thirty STIP3-1 variants were designed, guided by the aforementioned alanine scan and a previous report that the central α-helical core of the S. aureus δ-toxin could be converted into AMP through the inclusion of additional lysine residues^39. The collection included ten members with single substitutions relative to STIP3-1 and others that incorporated a number of changes that were designed to increase overall and local cationic charge as well as hydrophobic character (Table 5). Each of the STIPs was screened, including STIP3-1 to STIP-31, for antibiotic activity against a methicillin-sensitive S. aureus test organism and a panel of 7 MRSA strains defined by distinct SCCmec genotypes (FIG. 2; ATCC MP-2).
(§2) Determination of minimum inhibitory concentrations. The MICs were measured for bioactive peptides identified from the initial screen. For bacterial studies, cation-adjusted Mueller Hinton (MH) broth was used as the growth medium whereas YPD was used for C. albicans. Bacterial cultures were diluted to a OD value of 6×10^−4 in MH broth and a 180 μl volume was mixed with 20 μl of peptide arrayed as 2-fold dilution series in a 96-well plate. For the positive control, 20 μl of sterile water was used. Plates were incubated as standing cultures overnight at 37° C. The lowest peptide concentration that resulted no observed microbial growth after an overnight treatment was defined as the MIC.

The test system of the next series is C. albicans MYA-2876. Nature of the series: MIC, YPD broth. It counts as cell-based, Candida albicans. Conditions: Table 8. The procedure, abridged: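 Minimum inhibitory concentrations against Candida albicans were determined in YPD broth (10 g/L yeast extract, 20 g/L peptone, 20 g/L dextrose) using peptides of 95% purity. A 180 μl volume of diluted yeast was combined with 20 μl of peptide in a 2-fold dilution series in 96-well plates, with sterile water as control, then incubated standing overnight at 37° C.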

The next series has as its system C. albicans Y537. Nature of the series: MIC, YPD broth. It counts as cell-based, Candida albicans. To be noted: Table 8.
Series [5] deals with Mannheimia haemolytica ATCC 33393. Nature of the series: MIC, broth dilution. Conditions: Table 10; liquid broth. It counts as cell-based. The procedure, abridged: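 Peptides (95% purity) in 2-fold dilution series were mixed with M. haemolytica diluted to OD 6×10^−4 in cation-adjusted Mueller Hinton broth and incubated standing overnight at 37 °C. MIC was the lowest concentration with no visible growth.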

The next series concerns M. luteus ATCC 4698. As to the kind of experiment: MIC, broth dilution. Conditions: Table 4; liquid broth. It counts as cell-based, Micrococcus luteus. Here is the method:
MIC determination. MICs were measured using peptides with 95% purity. For bacterial studies, cation-adjusted Mueller Hinton (MH) broth was used as the growth medium whereas Yeast Peptone Dextrose (YPD; 10 g/L yeast extract, 20 g/L peptone, 20 g/L dextrose) was used for Candida spp. and other yeast. Microorganisms were diluted to an optical density of […] in MH or YPD broth and a 180 μl volume was mixed with 20 μl of peptide arrayed as a 2-fold dilution series in a flat-bottom 96-well microtitre plate. A control was performed using 20 μl of sterile water. Plates were incubated as standing cultures overnight at 37° C.
as §2

Series [6] has as its system S. aureus ATCC 29213. As to the kind of experiment: Spot-on-lawn assay. It counts as cell-based, Staphylococcus aureus. Conditions: 50 μg peptide spotted on agar. How it is done: Spot-on-lawn assay. For the initial screen, peptides of ≥70% purity were used. Each peptide was resuspended in sterile water to a concentration of 10 mg/ml. To determine antimicrobial activities a spot-on-lawn assay was performed. M. luteus and S. aureus were used as indicator strains. To prepare test organisms, the optical density (OD) of overnight cultures were measured and the organisms were diluted to an initial OD of 0.05 in soft nutrient agar (0.4% w/v) at 50° C. Next, 3 mL of soft agar containing a test organism was overlaid on a solid 1.5% w/v nutrient agar plate (LB). A total of 50 μg of each peptide was spotted on the inoculated surface and plates were incubated for 16 to 48 h before being examined for zones of inhibition.
SspA protease treatment. SspA protease was resuspended at 2 mg/mL in 100 mM HEPES, pH 7.8. Proteolysis was achieved by incubation of 50 μg PSMs at 37° C. for ˜5 hours with 0.2 mg/mL SspA. The antimicrobial activity of the proteolytic products were assayed by spotting a 5 μL (˜45 μg) from each treated peptide on each test microorganism as described above.

This note sets out measurements from patent publication US12370235B2, “Synthetic, non-natural antimicrobial peptides inspired by Staphylococcus auricularis delta toxin” (University of Saskatchewan, priority 2021, dated 2025).

In brackets after ≈: the same amount, converted by molar mass. Square brackets hold non-standard residues; d marks the D form. Ends that are not written are not given here. Peptide text beside a SMILES is read from it.

With `CC[C@H](C)[C@H](NC(=O)[C@H](Cc1c[nH]c2ccccc12)NC(=O)[C@H](CCCCN)NC(=O)[C@@H](NC(=O)[C@H](CC(C)C)NC(=O)CNC(=O)CNC(=O)[C@@H](NC(=O)[C@@H](N)[C@@H](C)O)C(C)C)C(C)C)C(=O)N[C@@H](CC(C)C)C(=O)N[C@H](CCCCN)C(=O)N[C@H](C(=O)N[C@H](C(=O)N[C@@H](CCCCN)C(=O)N[C@@H](CCCCN)C(=O)N[C@@H](Cc1ccccc1)C(=O)N[C@@H](C)C(N)=O)C(C)C)[C@@H](C)O` [STIP3-29-D1, TVGGLVKWILKTVKKFA-NH2] (H-TVGGLVKWIL[dK]TVKKFA-NH2; N-terminus assumed), in series [1], the “MIC S. aureus ATCC 33592 (III)” value is 25 mg/L (≈ 13.2 µM). In addition, the “MIC S. aureus ATCC 29213” value against S. aureus ATCC 29213 [2] (Table 5, STIP3 variants, highest concentration 100 μg/mL) amounted to 12.5 mg/L (≈ 6.62 µM). Further, in series [3], the “α helicity (%)” value is reported as 51%. Further, the “fold increase of MIC relative to STIP3-29” value in [4] was determined as 4 fold. Further, in the series on C. albicans MYA-2876, the “MIC C. albicans MYA-2876” value was determined as 12.5 mg/L (≈ 6.62 µM). In the series on C. albicans Y537, the “MIC C. albicans Y537” value was 25 mg/L (≈ 13.2 µM).
Consider “AVGGLVKWILDTVKKFA [T1A, AVGGLVKWILDTVKKFA]”, for which, in series [5], the “MIC (μg/mL) M. haemolytica” value came to 50 µg/mL. The “MIC (μg/mL) S. aureus” value in the series on S. aureus ATCC 29213 [2] (Table 4, liquid broth) is 200 µg/mL. The “MIC (μg/mL) M. luteus” value against M. luteus ATCC 4698 was found to be 12.5 µg/mL. In addition, in the series on S. aureus ATCC 29213 [6], the “inhibition of S. aureus, spot-on-lawn” value was “observed to inhibit S. aureus”.
